Measured values reported in patent publication US9944603B2, “Compounds and methods for the treatment of cystic fibrosis” (Flatley Discovery Lab, LLC, priority 2013, dated 2018).

Biological target: T1, human F508del CFTR (Homo sapiens, UniProt P13569, DEL508-508)
T1 construct: expressed in transfected cells
Assay: CFTR-YFP Assay, CFTR Corrector Protocol (YFP flux assay)
Assay type: cell-based
Conditions: for Emax: normalized to the positive control, read-out: EMAX (% Efficacy, EMAX normalized to the positive control)

T1 sequence (P13569 with tags, fused parts or gaps DEL508-508): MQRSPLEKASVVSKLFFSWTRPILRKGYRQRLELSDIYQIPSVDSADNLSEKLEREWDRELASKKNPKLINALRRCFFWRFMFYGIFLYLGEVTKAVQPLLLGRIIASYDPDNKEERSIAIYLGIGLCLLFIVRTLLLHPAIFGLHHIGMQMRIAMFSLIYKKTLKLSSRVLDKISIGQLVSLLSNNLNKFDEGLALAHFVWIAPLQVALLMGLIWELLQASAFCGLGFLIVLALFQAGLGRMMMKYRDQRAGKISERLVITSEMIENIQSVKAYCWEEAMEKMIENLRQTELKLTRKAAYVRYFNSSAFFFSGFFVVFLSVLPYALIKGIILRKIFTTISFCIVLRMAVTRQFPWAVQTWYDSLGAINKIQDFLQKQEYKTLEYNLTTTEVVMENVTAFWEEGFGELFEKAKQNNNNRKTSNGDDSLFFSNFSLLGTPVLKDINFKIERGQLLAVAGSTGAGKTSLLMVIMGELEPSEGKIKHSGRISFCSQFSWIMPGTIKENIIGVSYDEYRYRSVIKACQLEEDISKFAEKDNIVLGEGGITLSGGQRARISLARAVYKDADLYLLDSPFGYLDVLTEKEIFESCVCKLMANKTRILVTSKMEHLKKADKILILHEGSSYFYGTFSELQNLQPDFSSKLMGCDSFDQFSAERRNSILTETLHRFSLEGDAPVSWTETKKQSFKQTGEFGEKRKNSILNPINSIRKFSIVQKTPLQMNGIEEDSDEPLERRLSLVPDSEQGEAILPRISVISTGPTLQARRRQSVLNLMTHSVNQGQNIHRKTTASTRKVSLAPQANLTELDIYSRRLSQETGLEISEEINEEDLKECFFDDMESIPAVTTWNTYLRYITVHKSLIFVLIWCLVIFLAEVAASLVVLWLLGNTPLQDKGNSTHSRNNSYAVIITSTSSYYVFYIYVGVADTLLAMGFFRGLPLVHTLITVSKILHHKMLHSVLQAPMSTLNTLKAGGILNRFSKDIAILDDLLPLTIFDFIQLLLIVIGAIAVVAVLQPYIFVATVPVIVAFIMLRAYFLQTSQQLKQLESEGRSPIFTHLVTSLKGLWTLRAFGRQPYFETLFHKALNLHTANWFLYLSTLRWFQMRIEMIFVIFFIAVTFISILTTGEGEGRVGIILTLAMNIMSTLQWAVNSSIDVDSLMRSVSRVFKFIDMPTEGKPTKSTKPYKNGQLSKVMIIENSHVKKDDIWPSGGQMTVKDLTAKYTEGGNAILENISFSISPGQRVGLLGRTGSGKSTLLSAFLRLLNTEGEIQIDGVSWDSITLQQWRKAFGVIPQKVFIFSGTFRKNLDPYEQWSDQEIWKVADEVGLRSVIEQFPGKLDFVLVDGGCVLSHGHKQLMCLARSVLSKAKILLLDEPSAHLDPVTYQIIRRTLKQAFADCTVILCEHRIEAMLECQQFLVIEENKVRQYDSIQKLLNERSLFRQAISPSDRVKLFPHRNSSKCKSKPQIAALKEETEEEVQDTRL

EC50 | Emax | SMILES
< 10 µM | 10 to 30% | CCc1ccc(S(=O)(=O)N2CCC(N(c3ccc(C)cn3)S(=O)(=O)c3ccccc3Cl)CC2)cc1 [Example 227]
10 to 20 µM | 10 to 30% | COc1ccc(N(C2CCN(S(=O)(=O)c3ccc4nc(C)oc4c3)CC2)S(=O)(=O)c2ccccc2Cl)nc1 [Example 228]
< 10 µM | 10 to 30% | CCc1ccc(S(=O)(=O)N2CCC(N(c3ccccn3)S(=O)(=O)c3ccc(C)cc3)CC2)cc1 [Example 229]
< 10 µM | 30 to 80% | CCc1ccc(S(=O)(=O)N2CCC(N(c3ccc(Cl)cn3)S(=O)(=O)c3ccccc3Cl)CC2)cc1 [Example 230]
< 10 µM | 30 to 80% | CCc1ccc(S(=O)(=O)N2CCC(N(c3nccs3)S(=O)(=O)c3ccccc3Cl)CC2)cc1 [Example 231]
< 10 µM | 10 to 30% | CCc1ccc(S(=O)(=O)N2CCC(N(c3cccc(Cl)n3)S(=O)(=O)c3ccccc3Cl)CC2)cc1 [Example 232]
< 10 µM | 30 to 80% | CCc1ccc(S(=O)(=O)N2CCC(N(c3cc(Cl)ccn3)S(=O)(=O)c3ccccc3Cl)CC2)cc1 [Example 233]
< 10 µM | 30 to 80% | CCc1ccc(S(=O)(=O)N2CCC(N(c3ccccn3)S(=O)(=O)c3cccc(Cl)c3)CC2)cc1 [Example 234]
< 10 µM | 30 to 80% | CCc1ccc(S(=O)(=O)N2CCC(N(c3ccccn3)S(=O)(=O)c3ccc(Cl)cc3)CC2)cc1 [Example 235]
< 10 µM | 10 to 30% | CCc1ccc(S(=O)(=O)N2CCC(N(c3ccc(OC)cc3)S(=O)(=O)c3ccccc3Cl)CC2)cc1 [Example 236]
< 10 µM | 10 to 30% | CCc1ccc(S(=O)(=O)N2CCC(N(c3ccc(C)cc3)S(=O)(=O)c3ccccc3Cl)CC2)cc1 [Example 237]
< 10 µM | 30 to 80% | CCc1ccc(S(=O)(=O)N2CCC(N(c3cccc(C)c3)S(=O)(=O)c3ccccc3Cl)CC2)cc1 [Example 238]
< 10 µM | 10 to 30% | CCc1ccc(S(=O)(=O)N2CCC(N(c3ccccc3OC)S(=O)(=O)c3ccccc3Cl)CC2)cc1 [Example 239]
< 10 µM | 10 to 30% | CCc1ccc(S(=O)(=O)N2CCC(N(c3cc(C)ccn3)S(=O)(=O)c3ccccc3Cl)CC2)cc1 [Example 240]
< 10 µM | 10 to 30% | CCc1ccc(S(=O)(=O)N2CCC(N(c3ccc(F)cc3)S(=O)(=O)c3ccccc3Cl)CC2)cc1 [Example 241]
< 10 µM | 10 to 30% | CCc1ccc(S(=O)(=O)N2CCC(N(c3ncccn3)S(=O)(=O)c3ccccc3Cl)CC2)cc1 [Example 242]
10 to 20 µM | 10 to 30% | CCc1ccc(S(=O)(=O)N2CCC(N(c3ccc(C(F)(F)F)cn3)S(=O)(=O)c3ccccc3Cl)CC2)cc1 [Example 243]
10 to 20 µM | 30 to 80% | CCc1ccc(S(=O)(=O)N2CCC(N(c3cc(OC)ccn3)S(=O)(=O)c3ccccc3Cl)CC2)cc1 [Example 244]
< 10 µM | 30 to 80% | CCc1ccc(S(=O)(=O)N2CCC(N(c3cnc(OC)cn3)S(=O)(=O)c3ccccc3Cl)CC2)cc1 [Example 245]
10 to 20 µM | 30 to 80% | CCc1ccc(S(=O)(=O)N2CCC(N(c3cccc(OC)c3)S(=O)(=O)c3ccccc3Cl)CC2)cc1 [Example 246]
< 10 µM | 30 to 80% | CCc1ccc(S(=O)(=O)N2CCC(N(c3ncccc3OC)S(=O)(=O)c3ccccc3Cl)CC2)cc1 [Example 247]
< 10 µM | 30 to 80% | CCc1ccc(S(=O)(=O)N2CCC(N(c3cnccn3)S(=O)(=O)c3ccccc3Cl)CC2)cc1 [Example 248]
< 10 µM | 30 to 80% | CCc1ccc(S(=O)(=O)N2CCC(N(c3ccncn3)S(=O)(=O)c3ccccc3Cl)CC2)cc1 [Example 249]
